The values that follow come from patent publication US5663148A, “Anaphylatoxin receptor ligands containing lipophilic residues” (Abbott Laboratories, priority 1994, dated 1997).

Where a SMILES comes first, the peptide text is derived from it. [ ]: non-standard residue; d: D form. The star is where a group is joined. d(hhPhe) = N[C@H](CCCc1ccccc1)C(=O)O; Hydrocinnamoyl = O=C(CCc1ccccc1)*; Cha = N[C@@H](CC1CCCCC1)C(=O)O

This assay deals with T1, C5a receptor (Homo sapiens, UniProt P21730).
T1 construct: from tissue; host or cells: polymorphonuclear leukocyte (PMNL) membrane fragments
T1 sequence (P21730 1-350): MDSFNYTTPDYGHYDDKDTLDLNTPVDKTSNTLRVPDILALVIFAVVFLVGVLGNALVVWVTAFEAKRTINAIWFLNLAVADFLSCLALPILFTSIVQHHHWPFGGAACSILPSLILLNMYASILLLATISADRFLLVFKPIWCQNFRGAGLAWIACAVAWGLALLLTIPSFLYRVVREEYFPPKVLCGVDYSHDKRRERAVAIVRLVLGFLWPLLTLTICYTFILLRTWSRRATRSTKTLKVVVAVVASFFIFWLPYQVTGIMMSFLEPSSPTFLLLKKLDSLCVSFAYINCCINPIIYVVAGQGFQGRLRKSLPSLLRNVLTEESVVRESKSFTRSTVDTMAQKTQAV
The assay is described as follows: Anaphylatoxin (C5a) receptor binding Ki determination, 125I-C5a on PMNL membrane fragments. The settings on record: read-out: Ki (In vitro C5a Receptor Binding Potency). As for the experimental part:
The membrane-bound radiolabeled C5a was separated from the free radiolabeled C5a by filtration, and the recovered gamma radioactivity was measured. […] Free and membrane-bound ligand were separated by filtration.
For `CC(C)C[C@H](NC(=O)CNC(=O)[C@H](Cc1ccccc1)NC(=O)CCCCCN)C(=O)NC(CCCc1ccccc1)C(=O)N[C@@H](CCCNC(=N)N)C(=O)O` (single isomer, unassigned) [Example 125, N-(6-Aminohexanoyl)-Phenylalanyl-Glycyl-Leucyl-{(R/S)-2-Amino-5-phenylpentanoyl}-Arginyl-OH], the inhibitory constant (Ki) – broadly, the dissociation constant of the complex between target and ligand, obtained from inhibition or displacement – is 0.83 µM.

With `CC(C)[C@H](NC(=O)CNC(=O)[C@H](CC1CCCCC1)NC(=O)CCCCCN)C(=O)NC(CCCc1ccccc1)C(=O)N[C@@H](CCCNC(=N)N)C(=O)O` (single isomer, unassigned) [Example 101], the Ki was found to be 52 µM.

As for `CSCC[C@H](NC(=O)[C@H](CC(=O)O)NC(=O)[C@@H](N)CCCCN)C(=O)N[C@@H](CCC(N)=O)C(=O)N[C@@H](CC(C)C)C(=O)NC(CCCc1ccccc1)C(=O)N[C@@H](CCCNC(=N)N)C(=O)O` (single isomer, unassigned) [Example 39, H-Lysyl-Aspartyl-Methionyl-Glutaminyl-Leucyl-{(R/S)-2-Amino-5-phenylpentanoyl}-Arginyl-OH], the Ki stood at 71 µM.

`CC(C)C[C@H](NC(=O)CNC(=O)[C@H](CC1CCCCC1)NC(=O)CCc1ccccc1)C(=O)N[C@H](CCCc1ccccc1)C(=O)N[C@@H](CCCNC(=N)N)C(=O)O` [Example 49, N-(3-Phenylpropanoyl)-{(2S)-2-Amino-3-cyclohexylpropanoyl}-Glycyl-Leucyl-{(R)-2-Amino-5-phenylpentanoyl}-Arginyl-OH] (Hydrocinnamoyl-[Cha]GL[d(hhPhe)]R-OH): the inhibition constant Ki was determined as 0.72 µM.
